This note sets out measurements from ChEMBL document CHEMBL2074352, “N-glycosylation controls functional activity of Oatp1, an organic anion transporter” (Am J Physiol Gastrointest Liver Physiol, 2003).

This series has as its target T1, Solute carrier organic anion transporter family member 1A1 (Rattus norvegicus, UniProt P46720).
T1 sequence (P46720 whole entry): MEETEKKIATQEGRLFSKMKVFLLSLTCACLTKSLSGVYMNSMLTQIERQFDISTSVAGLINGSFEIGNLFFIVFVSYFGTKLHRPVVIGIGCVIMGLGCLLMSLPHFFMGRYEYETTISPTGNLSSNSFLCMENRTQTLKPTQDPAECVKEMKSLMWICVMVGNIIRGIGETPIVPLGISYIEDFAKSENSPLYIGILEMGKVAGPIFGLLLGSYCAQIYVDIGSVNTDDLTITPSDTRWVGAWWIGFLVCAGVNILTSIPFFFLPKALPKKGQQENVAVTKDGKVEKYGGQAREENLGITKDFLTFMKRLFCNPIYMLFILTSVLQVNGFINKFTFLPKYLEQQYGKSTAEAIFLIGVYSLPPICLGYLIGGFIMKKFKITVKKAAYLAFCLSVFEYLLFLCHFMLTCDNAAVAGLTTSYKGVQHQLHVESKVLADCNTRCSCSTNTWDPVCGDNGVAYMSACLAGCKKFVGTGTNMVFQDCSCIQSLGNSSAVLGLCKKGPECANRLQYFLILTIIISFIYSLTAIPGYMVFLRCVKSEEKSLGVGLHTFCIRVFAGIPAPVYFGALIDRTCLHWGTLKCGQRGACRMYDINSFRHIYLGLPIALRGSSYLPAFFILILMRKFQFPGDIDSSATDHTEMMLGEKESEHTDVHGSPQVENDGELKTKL
The series can be described thus: TP_TRANSPORTER: uptake in Oatp1-expressing Saccharomyces cerevisiae secretory vesicle. The class given is functional, subcellular.

In the case of `C[C@]12CC[C@@H]3c4ccc(OS(=O)(=O)O)cc4CC[C@H]3[C@@H]1CCC2=O` [ESTRONE SULFURIC ACID], the Activity result was “is not a substrate [-]”. Regarding `CCCCC/C=C\C\C=C/C=C/C=C/[C@@H](SC[C@@H](NC(=O)CC[C@H](N)C(=O)O)C(=O)NCC(=O)O)[C@@H](O)CCCC(=O)O` [LEUKOTRIEN C4], the Activity entry is “is not a substrate [-]”.
